Data published in ChEMBL document CHEMBL3352047, “Hybrids of phenylsulfonylfuroxan and coumarin as potent antitumor agents” (J Med Chem, 2014).
One block for each compound: values may come before it. The source made the active and inactive calls. The rule behind the calls is not given here.

Columns and labels:
A2780 [1] = assay: Antiproliferative activity against human A2780 cells after 48 hrs by MTT assay; settings: A2780, 48 h
[2] = Antiproliferative activity against human A2780/CDDP cells after 48 hrs by MTT assay
A549 = assay: cells; settings: Homo sapiens, A549, 48 h
HeLa = assay: cells; settings: Homo sapiens, 48 h
HUVEC [3] = assay: cells; settings: Homo sapiens, 48 h
Description: Antiproliferative activity against HUVEC after 48 hrs by MTT assay

T29 = assay: Induction of nitric oxide generation in human T29 cells at 100 uM after 150 mins by Griess assay; type: functional, cell-based
A2780 [4] = assay: Induction of nitric oxide generation in human A2780 cells at 500 nM after 24 hrs by Griess assay in presence of hemoglobin; type: functional, cell-based
A2780/CDDP = assay: Induction of nitric oxide generation in human A2780/CDDP cells at 500 nM after 24 hrs by Griess assay in presence of hemoglobin; type: functional, cell-based
A2780 [5] = assay: Induction of nitric oxide generation in human A2780 cells after 1 hr by DAF-FM DA staining-based assay; type: functional, cell-based
A2780 [6] = assay: Induction of nitric oxide generation in human A2780 cells at 100 to 1000 nM after 1 hr by DAF-FM DA staining-based assay; type: functional, cell-based
A2780 [7] = assay: Anticlonogenic activity against human A2780 cells assessed as inhibition of colony formation of cells at 5 to 20 nM after 48 hrs by gentian violet staining-based assay; type: functional, cell-based
MDA-MB-231 [8] = assay: Anticlonogenic activity against human gemcitabine-resistant human MDA-MB-231 cells assessed as inhibition of colony formation of cells at 20 to 80 nM after 48 hrs by gentian violet staining-based assay; type: functional, cell-based
A2780 [9] = assay: Anticlonogenic activity against human A2780 cells assessed as inhibition of colony formation of cells after 48 hrs by gentian violet staining-based assay; type: functional, cell-based
MDA-MB-231 [10] = assay: Anticlonogenic activity against human gemcitabine-resistant human MDA-MB-231 cells assessed as inhibition of colony formation of cells after 48 hrs by gentian violet staining-based assay; type: functional, cell-based
A2780 [11] = assay: Cell cycle arrest in human A2780 cells assessed as accumulation at G2/M phase at 20 to 80 nM after 24 hrs by propidium iodide staining-based flow cytometry; type: functional
A2780 [12] = assay: Cell cycle arrest in human A2780 cells assessed as accumulation at G2/M phase after 24 hrs by propidium iodide staining-based flow cytometry; type: functional
A2780 [13] = assay: Cell cycle arrest in human A2780 cells assessed as reduction at S phase at 20 to 80 nM after 24 hrs by propidium iodide staining-based flow cytometry; type: functional
A2780 [14] = assay: Cell cycle arrest in human A2780 cells assessed as reduction at G0/G1 phase at 20 to 80 nM after 24 hrs by propidium iodide staining-based flow cytometry; type: functional
A2780 [15] = assay: Induction of apoptosis in human A2780 cells assessed as early apoptotic cells at 20 to 80 nM after 24 hrs by annexin-V/propidium iodide staining-based flow cytometry; type: functional
A2780 [16] = assay: Induction of apoptosis in human A2780 cells assessed as late apoptotic cells at 20 to 80 nM after 24 hrs by annexin-V/propidium iodide staining-based flow cytometry; type: functional
A2780 [17] = assay: Induction of apoptosis in human A2780 cells assessed as increase in Bax protein expression after 24 hrs by Western blotting analysis; type: functional, cell-based
A2780 [18] = assay: Induction of apoptosis in human A2780 cells assessed as reduction in Bcl-2 protein expression after 24 hrs by Western blotting analysis; type: functional, cell-based
A2780 [19] = assay: Induction of apoptosis in human A2780 cells assessed as increase in p53 phosphorylation at 100 to 1000 nM after 24 hrs by Western blotting analysis; type: functional, cell-based
A2780 [20] = assay: Induction of apoptosis in human A2780 cells assessed as increase in PARP-1 cleavage at 100 to 1000 nM after 24 hrs by Western blotting analysis; type: functional, cell-based
[21] = Acute toxicity in KM mouse assessed as survival at 500 mg/kg, ip measured on day 14 relative to vehicle-treated control; type: organism-based; design: dose 500 mg/kg, route intraperitoneal; settings: in vivo
[22] = Acute toxicity in KM mouse assessed as survival at 300 mg/kg, ip measured on day 14 relative to vehicle-treated control; type: organism-based; design: dose 300 mg/kg, route intraperitoneal; settings: in vivo
[23] = Acute toxicity in KM mouse assessed as survival at 275 mg/kg, ip measured on day 14 relative to vehicle-treated control; type: organism-based; design: dose 275 mg/kg, route intraperitoneal; settings: in vivo
[24] = Acute toxicity in KM mouse assessed as survival at 250 mg/kg, ip measured on day 14 relative to vehicle-treated control; type: organism-based; design: dose 250 mg/kg, route intraperitoneal; settings: in vivo
[25] = Acute toxicity in KM mouse assessed as survival at 225 mg/kg, ip measured on day 14 relative to vehicle-treated control; type: organism-based; design: dose 225 mg/kg, route intraperitoneal; settings: in vivo
[26] = Acute toxicity in KM mouse assessed as survival at 200 mg/kg, ip measured on day 14 relative to vehicle-treated control; type: organism-based; design: dose 200 mg/kg, route intraperitoneal; settings: in vivo
[27] = Acute toxicity in ip dosed KM mouse; type: organism-based; settings: in vivo
A2780 [28] = assay: Antitumor activity against human A2780 cells xenografted in BALB/C nude mouse at 15 mg/kg, ip administered once every 3 days measured on day 15 relative to vehicle-treated control; type: functional; settings: route intraperitoneal, read-out: TGI
A2780 [29] = assay: Antitumor activity against human A2780 cells xenografted in BALB/C nude mouse at 30 mg/kg, ip administered once every 3 days measured on day 15 relative to vehicle-treated control; type: functional; settings: route intraperitoneal, read-out: TGI
A2780 [30] = assay: Antitumor activity against human A2780 cells xenografted in BALB/C nude mouse assessed as loss in tumor weight at 15 to 30 mg/kg, ip administered once every 3 days measured after 15 days relative to vehicle-treated control; type: functional, organism-based
[31] = Antiproliferative activity against human SKOV3 cells after 48 hrs by MTT assay; settings: SK-OV-3, 48 h
[32] = Antiproliferative activity against cisplatin-resistant human SKOV3 cells after 48 hrs by MTT assay; settings: SK-OV-3, 48 h
[33] = Antiproliferative activity against human T29 cells after 48 hrs by MTT assay; settings: T29, 48 h
HUVEC [34] = assay: Antiangiogenic activity against HUVEC assessed as suppression of tubule formation at 10 nM after overnight incubation by matrigel assay; type: functional, cell-based; settings: Homo sapiens
HUVEC [35] = assay: Antiangiogenic activity against HUVEC assessed as disruption of tubule formation at 100 nM after overnight incubation by matrigel assay; type: functional, cell-based; settings: Homo sapiens
A2780 [36] = assay: Induction of nitric oxide generation in human A2780 cells at 100 uM after 150 mins by Griess assay; type: functional

Structure (SMILES): Cc1cc(=O)oc2cc(OCCOc3no[n+]([O-])c3S(=O)(=O)c3ccccc3)ccc12
Activity (T29): Active
Activity (A2780 [4]): inactive
Activity (A2780/CDDP): inactive
Activity (A2780 [5]): Dose-dependent effect
Activity (A2780 [6]): Active
inhibition (A2780 [7]): Active
inhibition (MDA-MB-231 [8]): Active
inhibition (A2780 [9]): Dose-dependent effect
inhibition (MDA-MB-231 [10]): Dose-dependent effect
Activity (A2780 [11]): 64.9%
Activity (A2780 [12]): Dose-dependent effect
Activity (A2780 [13]): Active
Activity (A2780 [14]): Active
Activity (A2780 [15]): 2.5%
Activity (A2780 [16]): 2.5%
Activity (A2780 [17]): Dose-dependent effect
Activity (A2780 [18]): Dose-dependent effect
Activity (A2780 [19]): Active
Activity (A2780 [20]): Active
survival at 14 day [21]: 10%
survival at 14 day [22]: 30%
survival at 14 day [23]: 40%
survival at 14 day [24]: 60%
survival at 14 day [25]: 90%
survival at 14 day [26]: 100%
LD50 [27]: 264 mg/kg
inhibition in vivo at 15 mg/kg (A2780 [28]): 55.8%
inhibition in vivo at 30 mg/kg (A2780 [29]): 65.5%
Activity (A2780 [30]): Active
IC50 (A2780 [1]): 14 nM
IC50 [2]: 62 nM
IC50 [31]: 83 nM
IC50 [32]: 140 nM
IC50 [33]: 14 nM
Activity (HUVEC [34]): Active
Activity (HUVEC [35]): Active
Activity (A2780 [36]): 97 µM
IC50 (A549): 24 nM
IC50 (HeLa): 53 nM
IC50 (HUVEC [3]): 34 nM

Structure (SMILES): CCc1cc(=O)c2ccc(OCCCOc3no[n+]([O-])c3S(=O)(=O)c3ccccc3)cc2o1
IC50 (A2780 [1]): 290 nM
IC50 [2]: 890 nM
IC50 (A549): 400 nM
IC50 (HeLa): 190 nM
IC50 (HUVEC [3]): 350 nM

Structure (SMILES): Cc1cc(=O)oc2c(C)c(Oc3no[n+]([O-])c3S(=O)(=O)c3ccccc3)ccc12
IC50 (A2780 [1]): 9350 nM
IC50 [2]: > 20000 nM
IC50 (A549): 11700 nM
IC50 (HeLa): > 20000 nM
IC50 (HUVEC [3]): > 20000 nM

Structure (SMILES): Cc1cc(=O)oc2cc(Sc3cccc(Cl)n3)ccc12
IC50 (A2780 [1]): 1350 nM
IC50 [2]: 1000 nM
Activity (A2780 [36]): inactive
IC50 (A549): 3250 nM
IC50 (HeLa): 1480 nM
IC50 (HUVEC [3]): 5890 nM

Structure (SMILES): Cc1cc(=O)oc2cc(N(C)CCOc3no[n+]([O-])c3S(=O)(=O)c3ccccc3)ccc12
IC50 (A2780 [1]): 950 nM
IC50 [2]: 2380 nM
IC50 (A549): 1020 nM
IC50 (HeLa): 510 nM
IC50 (HUVEC [3]): 890 nM

Structure (SMILES): O=S(=O)(c1ccccc1)c1no[n+]([O-])c1S(=O)(=O)c1ccccc1
IC50 (A2780 [1]): 880 nM
IC50 [2]: 890 nM
IC50 (A549): 2350 nM
IC50 (HeLa): 1450 nM
IC50 (HUVEC [3]): 4330 nM

Structure (SMILES): Cc1cc(=O)oc2cc(Oc3no[n+]([O-])c3S(=O)(=O)c3ccccc3)ccc12
IC50 (A2780 [1]): 2990 nM
IC50 [2]: 3150 nM
IC50 (A549): 5550 nM
IC50 (HeLa): > 20000 nM
IC50 (HUVEC [3]): 5430 nM

Second part, led by results:

IC50 (A2780 [1]): 3330 nM
IC50 (A549): 5450 nM
IC50 (HeLa): 830 nM
Structure (SMILES): CCc1cc(=O)c2ccc(OCCOc3no[n+]([O-])c3S(=O)(=O)c3ccccc3)cc2o1
IC50 [2]: 2880 nM
IC50 (HUVEC [3]): 1030 nM

IC50 (A2780 [1]): 660 nM
IC50 (A549): 650 nM
IC50 (HeLa): 320 nM
Structure (SMILES): Cc1cc(=O)oc2cc(OCCCCOc3no[n+]([O-])c3S(=O)(=O)c3ccccc3)ccc12
IC50 [2]: 990 nM
IC50 (HUVEC [3]): 250 nM

IC50 (A2780 [1]): > 20000 nM
IC50 (A549): > 20000 nM
IC50 (HeLa): > 20000 nM
Structure (SMILES): O=C(COc1ccc2ccc(=O)oc2c1)OCCOc1no[n+]([O-])c1S(=O)(=O)c1ccccc1
IC50 [2]: > 20000 nM
IC50 (HUVEC [3]): > 20000 nM

IC50 (A2780 [1]): 110 nM
IC50 (A549): 8860 nM
IC50 (HeLa): 4550 nM
Structure (SMILES): O=c1ccc2ccc(Oc3no[n+]([O-])c3S(=O)(=O)c3ccccc3)cc2o1
IC50 [2]: 3440 nM
IC50 (HUVEC [3]): 6750 nM
